According to paper PMC9035832, “Synthesis and Evaluation of a Non-Peptide Small-Molecule Drug Conjugate Targeting Integrin αVβ3” (Frontiers in Chemistry, 2022):
Numbered stars: 1 amine (or outer) side, 2 acyl side, 3 side chain; on linkers, the order of the positions; unused ones are H or OH. Bridge positions count the residues as written; N and C are the ends. Square brackets hold non-standard residues; d marks the D form. Peptide text beside a SMILES is read from it. I, II: the chains in the order shown. * marks the point of attachment. Dolaproine = CO[C@@H]([C@@H]1CCCN1)[C@@H](C)C(=O)O; Dil = CC[C@H](C)[C@H](NC)[C@@H](CC(=O)O)OC; X1 = O=C(CCCc1cn(CCOCCOCCN[*:1])nn1)[*:2]; PABC = O=C(OCc1ccc(N[*:1])cc1)[*:2]; X2 = C[C@@H](N*)[C@@H](O)c1ccccc1; Suc = O=C(CCC(=O)[*:2])[*:1]; NMeV = CN[C@H](C(=O)O)C(C)C

Experiments:
WM115 cells [1] = assay: Cell viability assay (resazurin based); details: for IC50: 3 days incubation, resazurin, read-out: Cytotoxicity IC50; for fold less cytotoxic than MMAE: relative to free MMAE
Experimental: (§1) WM115 cells were cultivated in the MEM medium (with 10% fetal bovine serum, 50 μg/ml gentamycin, and 0.5 mM sodium pyruvate) at 37°C and 5.3% CO2-humidified air in an incubator. The cells were seeded in a sterile flat-bottom cell culture 96-well plate (Sarstedt) in a density of 10,000 cells/well (100 µl/well) and incubated for 1 day as described. A serial dilution (1:3 dilution) of the compounds and the standard (cryptophycin-52) in the medium was prepared and transferred to the assay plate (100 µl/well), followed by incubation for 3 days as described. Afterward, a solution of resazurin (175 μM, 30 µl/well) was added, followed by incubation for 6 h. Subsequently, the fluorescence was measured with a TecanReader (Excitation: 530 nm; Emission: 588 nm) and plotted and analyzed using OriginPro® 2020b where the inflection point of a DoseResp fit described the IC50 value. […]
(§2) WM115 cells were cultivated in MEM medium (with 10 % foetal bovine serum, 50 µg/mL gentamycin, 0.5 mM sodium pyruvate) at 37 °C and 5.3 % CO2-humidified air in an incubator. The cells were seeded in a sterile flat-bottom cell culture 96-well plate (Sarstedt) in a density of 10000 cells/well (100 µL/well) and incubated for 1 day as described. A dilution series (1:3 dilution) of the compounds and the standard (cryptophycin-52) in medium was prepared and transferred to the assay plate (100 µL/well) followed by incubation for 3 d as described. Afterwards a solution of resazurin (175 µM, 30 µL/well) was added followed by incubation for 6 h. Subsequently, the fluorescence was measured with a TecanReader (Excitation: 530 nm; Emission: 588 nm) as well as plotted and analysed using OriginPro® 2020b where the inflection point of a DoseResp fit describes the IC50 value.

M21-L cells = assay: Cell adhesion assay on vitronectin, αVβ3-negative cells; type: cell-based; details: for IC50: adhesion of M21-L cells to vitronectin, read-out: M21-L (αV−, αVβ3−) IC50, cell adhesion
Experimental: (§3) WM115 cells were cultivated and used in the MEM Eagle medium (Pan Biotech P04-08500 with 10% fetal bovine serum, 50 μg/ml gentamycin, and 0.5 mM sodium pyruvate) and M21-L cells in the RPMI medium (Pan Biotech P04-16500 with 10% fetal bovine serum, 1% Pen-Strep). A flat-bottom MaxiSorp Nunc 96-well plate was coated with recombinant human vitronectin (100 µl/well, 1 μg/ml, Peprotech) in the PBS buffer (137 mM NaCl, 2.7 mM KCl, 10 mM Na2HPO4, 2 mM KH2PO4, pH 7.4) at 4°C and blocked at the following day by adding a solution of fatty acid free milk powder in PBS buffer (5 w/v %, 100 µl/well) at 4°C. The WM115 and M21-L cells were washed with the PBS buffer, detached with Accutase solution (5 ml, Pan Biotech P10-21100) at 37°C for 5 min, and then diluted with the medium (15 ml). After centrifugation (850 rpm, 6 min), the resulting cell pellet was resuspended with fluorescein diacetate in the medium (fluorescein diacetate 1.5 mg/ml, cell density 5·× 10^5 cells/ml) and incubated for 30 min at 37°C in the dark. The cells were washed twice with the medium and then resuspended in the medium (cell density 5 × 10^5 cells/ml). Afterward, a solution of CaCl2, MnCl2, and MgCl2 (each 100 mM) in the PBS buffer (90 µl) was transferred to the cells and incubated for 30 min on ice in the dark. In the meantime, a dilution series of the compounds in the medium (1:3 dilution) was prepared, and 240 µl were transferred to Eppendorf tubes. Pure medium was used as a positive control. Cell suspension (240 µl) was added to each tube of the dilution series and the control, followed by incubation at 37°C for 30 min in the dark. The assay plate was discharged and washed with 200 µl/well medium. Then the cell suspension with different compound concentrations was added to the assay plate (100 µl/well) and incubated for 60 min at 37°C in the dark. Afterward, the assay plate was washed with the medium (3 × 100 µl/well), and finally, the medium (100 µl/well) was added and the fluorescence was measured with a TecanReader (Excitation: 480 nm; Emission: 520 nm). The determined values were plotted and analyzed using OriginPro® 2020b where the inflection point of a DoseResp fit described the IC50 value.
WM115 cells were cultivated and used in MEM Eagle medium (Pan Biotech P04-08500 with 10 % foetal bovine serum, 50 µg/mL gentamycin, 0.5 mM sodium pyruvate) and M21-L cells in RPMI medium (Pan Biotech P04-16500 with 10 % foetal bovine serum, 1 % Pen-Strep). Overnight a flat-bottom MaxiSorp Nunc 96-well plate was coated with recombinant human vitronectin (100 µL/well, 1 µg/mL, Peprotech) in PBS buffer (137 mM NaCl, 2.7 mM KCl, 10 mM Na2HPO4,2 mM KH2PO4, pH 7.4) at 4 °C and blocked at the following day by adding a solution of fatty acid free milk powder in PBS buffer (5 w/v %, 100 µL/well) at 4 °C. […]

WM115 cells [2] = assay: Cell adhesion assay on vitronectin, αVβ3-positive cells; type: cell-based; details: adhesion of WM115 cells to vitronectin
Experimental: as §3, with “Then the cell suspension with different compound concentrations was added to the assay plate (100 µl/well) and incubated for 60 min at 37°C in the dark.” left out, “value. […]” for “value.”

[3] = Cell viability assay (resazurin based); details: WM115 cells, 3 days incubation, resazurin; read-out: Cytotoxicity IC50
Experimental: as §1, §2

| Structure (SMILES) | IC50 (WM115 cells [1]) | fold less cytotoxic than MMAE (WM115 cells [1]) | IC50 (M21-L cells) | IC50 (WM115 cells [2]) | IC50 [3] | TI (RAD/RGD), targeting index (WM115 cells [1]; TI = [IC50 (17)]/[IC50 (compound)]) | effect on cell adhesion of αVβ3-negative cells (M21-L cells; M21-L cell line, adhesion to vitronectin) |
| --- | --- | --- | --- | --- | --- | --- | --- |
| CC[C@H](C)[C@@H]([C@@H](CC(=O)N1CCC[C@H]1[C@H](OC)[C@@H](C)C(=O)N[C@H](C)[C@@H](O)c1ccccc1)OC)N(C)C(=O)[C@@H](NC(=O)[C@H](C(C)C)N(C)C(=O)OCc1ccc(NC(=O)[C@H](C)NC(=O)[C@@H](NC(=O)[C@H](CCC(=O)O)NC(=O)CCCc2cn(CCOCCOCCNC(=O)CCC(=O)NCCCC[C@@H]3NC(=O)[C@@H](Cc4ccccc4)NC(=O)[C@H](CC(=O)O)NC(=O)CNC(=O)[C@H](CCCNC(=N)N)NC3=O)nn2)C(C)C)cc1)C(C)C [compound 16] | 91.4 ± 12.3 nM | about 50 fold | > 100000 nM | 2650 ± 350 nM | – | – | – |
| CC[C@H](C)[C@@H]([C@@H](CC(=O)N1CCC[C@H]1[C@H](OC)[C@@H](C)C(=O)N[C@H](C)[C@@H](O)c1ccccc1)OC)N(C)C(=O)[C@@H](NC(=O)[C@H](C(C)C)N(C)C(=O)OCc1ccc(NC(=O)[C@H](C)NC(=O)[C@@H](NC(=O)[C@H](CCC(=O)O)NC(=O)CCCc2cn(CCOCCOCCNC(=O)CCC(=O)NCCCC[C@@H]3NC(=O)[C@@H](Cc4ccccc4)NC(=O)[C@H](CC(=O)O)NC(=O)[C@H](C)NC(=O)[C@H](CCCNC(=N)N)NC3=O)nn2)C(C)C)cc1)C(C)C [compound 17] (I: [X1]EVA[PABC][NMeV]V[Dil][Dolaproine]-X2 / II: cyclo(AD[dF]KR); linker I:N-II:4 via Suc) | 264 ± 24.6 nM | 150 fold | > 100000 nM | 79100 ± 1690 nM | – | – | – |
| CC[C@H](C)[C@@H]([C@@H](CC(=O)N1CCC[C@H]1[C@H](OC)[C@@H](C)C(=O)N[C@H](C)[C@@H](O)c1ccccc1)OC)N(C)C(=O)[C@@H](NC(=O)[C@H](C(C)C)N(C)C(=O)OCc1ccc(NC(=O)[C@H](C)NC(=O)[C@@H](NC(=O)[C@H](CCC(=O)O)NC(=O)CCCc2cn(CCOCCOCCOc3ccc(C(=O)N[C@@H](Cc4ccc(OCCCCCNC5=NCCN5)cc4)C(=O)O)cc3)nn2)C(C)C)cc1)C(C)C [compound 18] | – | about 50 fold | > 100000 nM | 8050 ± 510 nM | 95 ± 25 nM | 2.8 | no effect |
